Test results: patent US20250270173A1, “PYRIDINE DERIVATIVES FOR TREATING PSYCHIATRIC DISORDERS” (GILGAMESH PHARMACEUTICALS, INC., priority 2022, published 2025)
Where “and” joins values, the source holds several entries; their conditions need not be identical. Equal entries are not always repeated. Where two headings read alike, the source gives them in different places.

Legend:
human 5-HT2C receptor = human 5-HT2C receptor (Homo sapiens (Human), UniProt P28335); test: FLIPR Ca2+ flux functional assay at 5-HT2C (Eurofins DiscoverX); type: cell-based; details: Ca2+ flux, human 5-HT2C; for 5-HT2C % Act @ Max Conc.: at max concentration; for EC50: read-out: 5-HT2C EC50
Sequence of human 5-HT2C receptor (P28335 whole entry, looked up): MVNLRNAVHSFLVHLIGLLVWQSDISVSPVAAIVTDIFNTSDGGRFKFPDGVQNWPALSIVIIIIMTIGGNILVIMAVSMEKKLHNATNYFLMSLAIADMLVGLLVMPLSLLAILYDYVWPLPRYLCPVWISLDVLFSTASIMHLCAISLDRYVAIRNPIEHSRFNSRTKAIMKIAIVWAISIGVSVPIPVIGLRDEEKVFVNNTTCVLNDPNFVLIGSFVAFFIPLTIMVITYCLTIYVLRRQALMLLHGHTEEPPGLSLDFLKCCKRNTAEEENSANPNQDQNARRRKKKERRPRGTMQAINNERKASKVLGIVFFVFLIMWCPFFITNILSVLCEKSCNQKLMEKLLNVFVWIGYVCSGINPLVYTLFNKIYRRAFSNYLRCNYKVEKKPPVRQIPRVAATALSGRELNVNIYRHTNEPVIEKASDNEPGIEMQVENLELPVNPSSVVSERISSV
Method: Functional Assays at 5-HT2C Receptors. […] Probenecid was prepared fresh. Cells were loaded with dye prior to testing and incubated at 37° C. for 30-60 minutes. After dye loading, cells were removed from the incubator and 10 μL HBSS/20 mM Hepes was added. 3× vehicle was included in the assay buffer. Cells were incubated for 30 mins at room temperature in the dark to equilibrate plate temperature. Intermediate dilution of sample stocks was performed to generate 4× sample in assay buffer. Compound agonist activity was measured on a FLIPR Tetra (MDS). Calcium mobilization was monitored for 2 minutes and 10 μL 4× sample in HBSS/20 mM Hepes was added to the cells 5 seconds into the assay.

C57BL/6 mice [1] = test: Manual head twitch response (HTR) assay in mice; type: in vivo; details: SC; for ED50: 20 min observation
Method: Agonists of the 5-HT2A receptor are well known to induce this effect in rodents and the potency of this HTR is correlated with hallucinogenic potency in humans.
(§1) Animals. Adult male C57BL/6 mice aged 8-10 weeks (body weight 20-25 g) were used in these experiments. Animals were housed under controlled temperatures and 12-hour light/dark cycles (lights on between 07:00-19:00 h), with ad libitum food and water. The protocol was approved by the Institutional Animal Care and Use Committee at the study site. This study was carried out in strict accordance with the recommendations in the Guide for the Care and Use of Laboratory Animals of the National Institutes of Health. All efforts were made to minimize suffering.
Drugs and Drug administration. DOI was commercially obtained. All other compounds were synthesized as described above. All drugs were administered subcutaneously (SC) dissolved in saline vehicle (or saline acidified with 1-2 molar equivalents HCl to form the salt in situ for freebase compounds) and at a volume of 10 mL/kg. Drugs were administered at 4 or 5 doses per compound, using n=6 animals/group. Doses were calculated on the basis of the freebase form, except for DOT, which was calculated based on the HCl salt.
Procedure. Mice were administered one dose of the drug (or vehicle) SC and immediately placed into a small open field for behavioral observation. Animals were observed continuously for 20 mins and the number of head twitches (HTs) were counted by an observer blind to the treatment condition.
(§2) Statistical Analysis. Analysis was performed using GraphPad Prism 9. Dose-response curves were fit via non-linear regression using the Gaussian 2020 function in Prism in order to determine the ED50 and Emax for each compound.

C57BL/6 mice [2] = test: Automated (video tracking) head twitch response (HTR) assay in mice; type: in vivo; details: SC; for ED50: 20 min recording; for Most Efficacious Dose; mg/kg: dose giving the most HTR
Method: Disclosed compounds were tested for their ability to induce a head twitch response (HTR) in mice using an automated video tracking procedure, with the results summarized in Table 5. […] The phenyl Compound 44 was substantially more efficacious at inducing HTR than its pyridine counterpart Compound 29, in agreement with the generally lower maximal efficacy of the disclosed pyridine compounds for signaling through 5-HT2A receptors.
as §1
Drugs and Drug Administration. […] was commercially obtained. Disclosed compounds were synthesized as described above. They were administered subcutaneously (SC) dissolved in saline (or saline acidified with 1-2 molar equivalents HCl to form the salt in situ for freebase compounds) at a volume of 10 mL/kg. Five doses were tested, with N=5-8 animals/group. Doses were calculated on the basis of the freebase, except for DOI, which was calculated based on the HCl salt.
Procedure. Mice were administered one dose of the drug and immediately placed into a small open field for behavioral observation. High-speed video of animals' behavior was captured continuously for 20 min. Video recordings were imported into an image processing software, which detects multiple points of interest on each animal's body, including the left and right ear. HTR events were defined as periodic deviations of ear locations from temporally averaged ear locations. Predefined thresholds for magnitude and frequency of location deviations were used to filter […] events from random head movements. The method was validated by comparing detected events with manual (human) observations and found to have an accuracy >95%. The total number of HTR events counted during the 20-min recording were determined for each animal at each dose.
as §2

5-HT2A receptor [3] = target: T1, 5-HT2A receptor (Homo sapiens (Human), UniProt P28223); test: FLIPR Ca2+ flux functional assay at 5-HT2A (HEK293); details: for 5-HT2A % Act @ Max Conc.: HEK293, at max concentration
5-HT2B receptor = 5-HT2B receptor (Homo sapiens (Human), UniProt P41595); test: FLIPR Ca2+ flux functional assay at 5-HT2B (HEK293); details: for 5-HT2B % Act @ Max Conc.: HEK293, at max concentration
Sequence of 5-HT2B receptor (P41595 whole entry, looked up): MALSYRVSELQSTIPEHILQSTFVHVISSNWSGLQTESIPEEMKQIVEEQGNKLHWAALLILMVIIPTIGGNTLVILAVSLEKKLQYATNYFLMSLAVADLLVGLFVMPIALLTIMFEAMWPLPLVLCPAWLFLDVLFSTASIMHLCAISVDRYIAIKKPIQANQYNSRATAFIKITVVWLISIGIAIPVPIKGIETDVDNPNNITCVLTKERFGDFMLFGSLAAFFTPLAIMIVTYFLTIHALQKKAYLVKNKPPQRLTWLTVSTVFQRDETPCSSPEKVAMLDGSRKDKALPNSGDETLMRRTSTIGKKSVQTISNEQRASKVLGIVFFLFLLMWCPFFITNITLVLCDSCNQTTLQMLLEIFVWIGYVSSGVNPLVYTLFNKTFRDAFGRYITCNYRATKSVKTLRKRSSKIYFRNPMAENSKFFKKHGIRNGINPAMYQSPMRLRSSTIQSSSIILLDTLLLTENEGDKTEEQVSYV

5-HT1A receptor = 5-HT1A receptor (Homo sapiens (Human), UniProt P08908); test: FLIPR Ca2+ flux functional assay at 5-HT1A (CHO cells); details: for 5-HT1A % Act @ Max Conc.: at max concentration
5-HT2A receptor [4] = target: T1, 5-HT2A receptor; test: 5-HT2A receptor radioligand binding with [3H]ketanserin; details: read-out: Ki at 5-HT2A Receptor (nM) ([3H]ketanserin); HEK293 stable cell line, 1 nM [3H]ketanserin, 1 h, 25 °C
[5] = read-out: 5-HT2B EC50, Ca2+ flux, HEK293
[6] = Mus musculus, 20 min, read-out: ED50
[7] = read-out: 5-HT2A EC50, Ca2+ flux, HEK293
[8] = read-out: 5-HT1A EC50, Ca2+ flux, CHO cells

Compound	5-HT2C % Act @ Max Conc. (human 5-HT2C receptor)	EC50 (human 5-HT2C receptor)	Emax (HTR counts/20 min) (C57BL/6 mice [1])	ED50 (C57BL/6 mice [1])	Emax (HTR counts/20 min) (C57BL/6 mice [2])	ED50 (C57BL/6 mice [2])	# HTR/20 min at Most Efficacious Dose (C57BL/6 mice [2])	Most Efficacious Dose; mg/kg (C57BL/6 mice [2])	5-HT2A % Act @ Max Conc. (5-HT2A receptor [3]; Ca2+ flux)	5-HT2B % Act @ Max Conc. (5-HT2B receptor; Ca2+ flux)	EC50 (5-HT2B receptor; [5])	5-HT1A % Act @ Max Conc. (5-HT1A receptor; Ca2+ flux, CHO cells)	EC50 (5-HT2A receptor [3])	EC50 (5-HT2B receptor)	EC50 (5-HT1A receptor)	Ki (5-HT2A receptor [4])	ED50 (C57BL/6 mice [2]; [6])	EC50 (5-HT2A receptor [3]; [7])	EC50 (5-HT1A receptor; [8])	ED50 (C57BL/6 mice [1]; [6])
COc1cc(CC(C)N)c(OC)cc1I (centres unmarked) [DOI, reference compound]	92.6%	0.818 nM	35.7 HTR counts/20 min	0.428 mg/kg	82.02 HTR counts/20 min	0.531 mg/kg	81.5 HTR/20 min	(3.2) mg/kg	106%	86.3%	4.88 nM	−2.47%	–	–	–	–	–	–	–	–
CCCCCCc1cc(OC)c(CC(C)N)nc1OC (centres unmarked) [Compound 38, 1-(5-hexyl-3,6-dimethoxypyridin-2-yl)propan-2-amine]	79.49%	159 nM	–	–	–	–	–	–	83.97%	4.76%	–	123.88%	11.4 nM	> 10000 nM	56900 nM	3.1 nM	–	–	–	–
CCCCCc1cc(OC)c(CCN)nc1OC [Compound 7, 2-(3,6-dimethoxy-5-pentylpyridin-2-yl)ethan-1-amine]	92.53%	16.2 nM	–	–	24.61 HTR counts/20 min	–	23.25 HTR/20 min	(1) mg/kg	82.88%	11.56%	–	61.95%	20 nM	> 10000 nM	51900 nM	6.32 nM	4.88 mg/kg	–	–	–
COc1cc(CCNCc2ccccc2OC)c(OC)cc1C [Compound 25D-NBOMe, 25D-NBOMe, reference compound]	91.5%	< 0.508 nM	–	–	–	–	–	–	97.5%	43.3%	1.27 nM	−4.43%	–	–	–	2.52 nM	–	0.251 nM	> 10000 nM	–
COc1cc(CCCCF)c(OC)nc1CCN [Compound 32, 2-(5-(4-fluorobutyl)-3,6-dimethoxypyridin-2-yl)ethan-1-amine]	99.77%	22.8 nM	–	–	–	–	–	–	81.86%	−0.69%	–	0.5%	20.8 nM	> 10000 nM	> 100000 nM	103 nM	–	–	–	–
COc1cc(C(F)(F)F)c(OC)cc1CCN [Compound 2C-TFM, 2C-TFM, reference compound]	88.2%	0.593 nM	–	–	–	–	–	–	81.5%	82.0%	16.3 nM	−0.647%	–	–	–	15.8 nM	–	1.05 nM	> 10000 nM	–
CCCCc1cc(OC)c(CCN)nc1OC [Compound 31, 2-(5-butyl-3,6-dimethoxypyridin-2-yl)ethan-1-amine]	–	–	–	–	43.42 HTR counts/20 min	–	43.38 HTR/20 min	(3.2) mg/kg	90.63%	7.29%	–	21.32%	7.88 nM	> 10000 nM	> 100000 nM	19.7 nM	1.29 mg/kg	–	–	–
CCC(N)Cc1nc(OC)c(Cl)cc1OC (centres unmarked) [Compound 18, 1-(5-chloro-3,6-dimethoxypyridin-2-yl)butan-2-amine]	36.76%	2250 nM	–	–	–	–	33.12 HTR/20 min	(10) mg/kg	70.92%	2.75%	–	1.33%	370 nM	> 10000 nM	> 100000 nM	1200 nM	–	–	–	–
CCCCCc1cc(OC)c(CC(N)CC)nc1OC (centres unmarked) [Compound 1, 1-(3,6-dimethoxy-5-pentylpyridin-2-yl)butan-2-amine]	44.38%	5470 nM	18.78 HTR counts/20 min	–	–	–	–	–	25% and 25.3%	0.18%	–	188%	115 nM	–	20200 nM	40 nM	–	–	–	0.897 mg/kg
COc1cc(CCCCCC(F)(F)F)c(OC)nc1CCN [Compound 30, 2-(3,6-dimethoxy-5-(6,6,6-trifluorohexyl)pyridin-2-yl)ethan-1-amine]	–	–	–	–	16.80 HTR counts/20 min	–	17.5 HTR/20 min	(3.2) mg/kg	73.21%	23.14%	–	55.61%	65 nM	1670 nM	91600 nM	6.01 nM	5.87 mg/kg	–	–	–
